Test results as given in ChEMBL document CHEMBL4219053, “Antiobesity and emetic effects of a short-length peptide YY analog and its PEGylated and alkylated derivatives” (Bioorg Med Chem, 2018).

What was measured:
[1] = biological target: T1, Neuropeptide Y receptor type 2 (Homo sapiens, UniProt P49146); test: Displacement of [125I]-PYY from human neuropeptide Y2 receptor expressed in CHO cell membranes incubated for 60 mins by TopCount micro scintillation analysis
T1 sequence (P49146 whole entry): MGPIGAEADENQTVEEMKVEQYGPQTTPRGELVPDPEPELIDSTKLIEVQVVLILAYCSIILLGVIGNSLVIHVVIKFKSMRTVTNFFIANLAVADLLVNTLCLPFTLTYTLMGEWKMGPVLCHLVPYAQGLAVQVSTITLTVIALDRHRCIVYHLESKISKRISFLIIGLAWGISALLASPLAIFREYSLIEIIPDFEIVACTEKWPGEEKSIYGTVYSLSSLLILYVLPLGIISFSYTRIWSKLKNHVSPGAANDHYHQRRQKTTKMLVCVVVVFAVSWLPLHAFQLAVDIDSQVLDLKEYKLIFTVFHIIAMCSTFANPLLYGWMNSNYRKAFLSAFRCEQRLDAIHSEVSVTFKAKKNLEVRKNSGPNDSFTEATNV

[2] = tested on: Mus musculus; test: Anorectic activity in C57BL/6J mouse assessed as inhibition of food intake at 30 nmol/kg, sc qd for 3 days relative to control; assay type: functional; conditions: 72 h
[3] = Tmax in Beagle dog at 3 nmol/kg, sc; assay type: ADME, organism-based, Canis lupus familiaris; conditions: in vivo
[4] = Mean residence time in C57BL/6J mouse at 10 nmol/kg, sc by LC-MS/MS analysis; assay type: ADME, organism-based; conditions: in vivo
[5] = AUC (0 to 48 hrs) in C57BL/6J mouse at 10 nmol/kg, sc by LC-MS/MS analysis; assay type: ADME, organism-based; design: dose 10 nmol/kg, time < 48 hr, route subcutaneous; conditions: in vivo
[6] = tested on: Mus musculus; test: Antiobesity activity in DIO C57BL/6J mouse assessed as reduction in body weight at 10 nmol/kg, sc qd for 2 weeks; assay type: functional; design: scale not given: the % may be the effect or the level left
[7] = Tmax in C57BL/6J mouse at 10 nmol/kg, sc by LC-MS/MS analysis; assay type: ADME, organism-based; conditions: in vivo
[8] = tested on: Mus musculus; test: Antiobesity activity in DIO C57BL/6J mouse assessed as reduction in body weight at 3 nmol/kg, sc qd for 2 weeks; assay type: functional; design: scale not given: the % may be the effect or the level left
[9] = Cmax in Beagle dog at 3 nmol/kg, sc; assay type: ADME, organism-based, Canis lupus familiaris; design: dose 3 nmol/kg, route subcutaneous; conditions: in vivo
[10] = Cmax in C57BL/6J mouse at 10 nmol/kg, sc by LC-MS/MS analysis; assay type: ADME, organism-based; design: dose 10 nmol/kg, route subcutaneous; conditions: in vivo
[11] = Solubility of the compound in water; assay type: physicochemical; conditions: buffer
[12] = tested on: Mus musculus; test: Antiobesity activity in DIO C57BL/6J mouse assessed as reduction in body weight at 30 nmol/kg, sc qd for 2 weeks; assay type: functional; design: scale not given: the % may be the effect or the level left
[13] = tested on: Canis familiaris; test: Emetic effect in Beagle dog at 3 nmol/kg, sc measured up to 4 hrs; assay type: ADME, organism-based, Canis lupus familiaris; conditions: in vivo
[14] = tested on: Canis familiaris; test: Emetic effect in Beagle dog at 3 nmol/kg, sc measured after 4 to 8 hrs; assay type: ADME, organism-based, Canis lupus familiaris; conditions: in vivo

Structure (SMILES)	IC50 [1] [nM]	solubility [11]	inhibition in vivo at 0.03 µmol/kg [2] [%]	Activity [6] [%]	Activity [12] [%]	further results
CC[C@](C)(NC(=O)[C@H]1C[C@H](O)CN1C(=O)[C@H](CO)NC(=O)c1c[nH]cn1)C(=O)N[C@@H](Cc1ccncc1)C(=O)N[C@@H](CC1CCCCC1)C(=O)N[C@@H](CC(C)(C)C)C(=O)N[C@@H](CC(N)=O)C(=O)N[C@@H](CCCCNC(=O)COCC(=O)NCCCOCCOCCOCCCNC(=O)CC[C@H](NC(=O)[C@H]1CC[C@H](CNC(=O)CCCCCCCCCCCCCCCCCCC(=O)O)CC1)C(=O)O)C(=O)NC(C)(C)C(=O)N[C@H](C(=O)N[C@@H](CCCNC(=N)N)C(=O)N[C@@H](CCC(N)=O)C(=O)N[C@@H](CCCNC(=N)N)C(=O)N[C@@H](CC1CCCCC1)C(N)=O)[C@@H](C)O	24	–	30	–	–	–
CC[C@](C)(NC(=O)[C@H]1C[C@H](O)CN1C(=O)[C@H](CO)NC(=O)c1c[nH]cn1)C(=O)N[C@@H](Cc1ccncc1)C(=O)N[C@@H](CC1CCCCC1)C(=O)N[C@@H](CC(C)(C)C)C(=O)N[C@@H](CC(N)=O)C(=O)N[C@@H](CCCCNC(=O)[C@@H](N)CCCCNC(=O)COCC(=O)NCCCOCCOCCOCCCNC(=O)CC[C@H](NC(=O)[C@H]1CC[C@H](CNC(=O)CCCCCCCCCCCCCCCCCCC(=O)O)CC1)C(=O)O)C(=O)NC(C)(C)C(=O)N[C@H](C(=O)N[C@@H](CCCNC(=N)N)C(=O)N[C@@H](CCC(N)=O)C(=O)N[C@@H](CCCNC(=N)N)C(=O)N[C@@H](CC1CCCCC1)C(N)=O)[C@@H](C)O	13	Insoluble	67	–	–	–
CC[C@](C)(NC(=O)[C@H]1C[C@H](O)CN1C(=O)[C@H](CO)NC(=O)COCC(=O)NCCCOCCOCCOCCCNC(=O)CC[C@H](NC(=O)[C@H]1CC[C@H](CNC(=O)CCCCCCCCCCCCCCCCCCC(=O)O)CC1)C(=O)O)C(=O)N[C@@H](Cc1ccncc1)C(=O)N[C@@H](CC1CCCCC1)C(=O)N[C@@H](CC(C)(C)C)C(=O)N[C@@H](CC(N)=O)C(=O)N[C@@H](CCCCNC(C)=O)C(=O)NC(C)(C)C(=O)N[C@H](C(=O)N[C@@H](CCCNC(=N)N)C(=O)N[C@@H](CCC(N)=O)C(=O)N[C@@H](CCCNC(=N)N)C(=O)N[C@@H](CC1CCCCC1)C(N)=O)[C@@H](C)O	7.6	–	43	–	-6.1	–
C[C@@H](O)[C@H](NC(=O)C(C)(C)NC(=O)[C@H](CCCCNC(=O)C1CCNCC1)NC(=O)[C@H](CC(N)=O)NC(=O)C(C)(C)NC(=O)[C@H](CC1CCCCC1)NC(=O)[C@H](Cc1ccncc1)NC(=O)[C@H](CCCNC(=N)N)NC(=O)[C@H]1C[C@H](O)CN1C(=O)[C@H](CO)NC(=O)COCC(=O)NCCCOCCOCCOCCCNC(=O)CC[C@H](NC(=O)[C@H]1CC[C@H](CNC(=O)CCCCCCCCCCCCCCCCCCC(=O)O)CC1)C(=O)O)C(=O)N[C@@H](CCCNC(=N)N)C(=O)N[C@@H](CCC(N)=O)C(=O)N[C@@H](CCCNC(=N)N)C(=O)N[C@@H](CC1CCCCC1)C(N)=O	4.5	–	67.3	-11.6	-17.2	–
CC[C@](C)(NC(=O)[C@H]1C[C@H](O)CN1C(=O)[C@H](CO)NC(=O)COCC(=O)NCCCOCCOCCOCCCNC(=O)CC[C@H](NC(=O)[C@H]1CC[C@H](CNC(=O)CCCCCCCCCCCCCCCCCCC(=O)O)CC1)C(=O)O)C(=O)N[C@@H](Cc1ccncc1)C(=O)N[C@@H](CC1CCCCC1)C(=O)N[C@@H](CC(C)(C)C)C(=O)N[C@@H](CC(N)=O)C(=O)N[C@@H](CCCCN)C(=O)NC(C)(C)C(=O)N[C@H](C(=O)N[C@@H](CCCNC(=N)N)C(=O)N[C@@H](CCC(N)=O)C(=O)N[C@@H](CCCNC(=N)N)C(=O)N[C@@H](CC1CCCCC1)C(N)=O)[C@@H](C)O	13	–	47.8	–	-15.1	–
CC[C@](C)(NC(=O)[C@H]1C[C@H](O)CN1C(=O)[C@H](CO)NC(=O)COCC(=O)NCCCOCCOCCOCCCNC(=O)CC[C@H](NC(=O)[C@H]1CC[C@H](CNC(=O)CCCCCCCCCCCCCCCCCCC(=O)O)CC1)C(=O)O)C(=O)N[C@@H](Cc1ccncc1)C(=O)N[C@@H](CC1CCCCC1)C(=O)N[C@@H](CC(C)(C)C)C(=O)N[C@@H](CC(N)=O)C(=O)N[C@@H](CCCCNC(=O)C1CCNCC1)C(=O)NC(C)(C)C(=O)N[C@H](C(=O)N[C@@H](CCCNC(=N)N)C(=O)N[C@@H](CCC(N)=O)C(=O)N[C@@H](CCCNC(=N)N)C(=O)N[C@@H](CC1CCCCC1)C(N)=O)[C@@H](C)O	7.6	–	52.8	–	-22.3	–
C[C@@H](O)[C@H](NC(=O)C(C)(C)NC(=O)[C@H](CCCCNC(=O)[C@@H](N)CCCCNC(=O)COCC(=O)NCCCOCCOCCOCCCNC(=O)CC[C@H](NC(=O)[C@H]1CC[C@H](CNC(=O)CCCCCCCCCCCCCCCCCCC(=O)O)CC1)C(=O)O)NC(=O)[C@H](CC(N)=O)NC(=O)C(C)(C)NC(=O)[C@H](CC1CCCCC1)NC(=O)[C@H](Cc1ccncc1)NC(=O)[C@H](CCCNC(=N)N)NC(=O)[C@H]1C[C@H](O)CN1C(=O)[C@H](CO)NC(=O)c1c[nH]cn1)C(=O)N[C@@H](CCCNC(=N)N)C(=O)N[C@@H](CCC(N)=O)C(=O)N[C@@H](CCCNC(=N)N)C(=O)N[C@@H](CC1CCCCC1)C(N)=O	8	Soluble	61	-16.5	-20.7	Tmax [3]: 24 h; MRT [4]: 9.3 h; Activity [13]: Non-Toxic; AUC(0-t) at 48 h [5]: 0.373 µM·h; Activity [14]: Toxic; Tmax [7]: 4 h; Activity [8]: -8%; Cmax [9]: 10.8 nM; Cmax [10]: 32 nM

The next compounds have a lower IC50 [1] than those just listed; values first:

IC50 [1] [nM]	solubility [11]	Structure (SMILES)	inhibition in vivo at 0.03 µmol/kg [2] [%]	Activity [6] [%]	Activity [12] [%]	further results
0.19	–	CCCCCCCCCCCCCCCC(=O)NC[C@H]1CC[C@H](C(=O)N[C@@H](CCC(=O)NCCCOCCOCCOCCCNC(=O)COCC(=O)N[C@@H](CO)C(=O)N2C[C@@H](O)C[C@@H]2C(=O)N[C@@H](CCCNC(=N)N)C(=O)N[C@@H](Cc2ccncc2)C(=O)N[C@@H](CC2CCCCC2)C(=O)NC(C)(C)C(=O)N[C@@H](CC(N)=O)C(=O)N[C@@H](CCCCNC(=O)C2CCNCC2)C(=O)NC(C)(C)C(=O)N[C@H](C(=O)N[C@@H](CCCNC(=N)N)C(=O)N[C@@H](CCC(N)=O)C(=O)N[C@@H](CCCNC(=N)N)C(=O)N[C@@H](CC2CCCCC2)C(N)=O)[C@@H](C)O)C(=O)O)CC1	68.3	-19	–	Tmax [3]: 2.5 h; MRT [4]: 1.7 h; AUC(0-t) at 48 h [5]: 0.0122 µM·h; Tmax [7]: 1 h; Activity [8]: -18.4%; Cmax [9]: 0.9 nM; Cmax [10]: 3.6 nM
0.19	–	CCCCCCCCCCCCCCCC(=O)NC[C@H]1CC[C@H](C(=O)N[C@@H](CCC(=O)NCCCOCCOCCOCCCNC(=O)COCC(=O)NCCCC[C@H](N)C(=O)NCCCC[C@H](NC(=O)[C@H](CC(N)=O)NC(=O)C(C)(C)NC(=O)[C@H](CC2CCCCC2)NC(=O)[C@H](Cc2ccncc2)NC(=O)[C@H](CCCNC(=N)N)NC(=O)[C@H]2C[C@H](O)CN2C(=O)[C@H](CO)NC(=O)c2c[nH]cn2)C(=O)NC(C)(C)C(=O)N[C@H](C(=O)N[C@@H](CCCNC(=N)N)C(=O)N[C@@H](CCC(N)=O)C(=O)N[C@@H](CCCNC(=N)N)C(=O)N[C@@H](CC2CCCCC2)C(N)=O)[C@@H](C)O)C(=O)O)CC1	36	–	–	–
3.4	Soluble	C[C@@H](O)[C@H](NC(=O)C(C)(C)NC(=O)[C@H](CCCCNC(=O)[C@@H](N)CCCCNC(=O)COCC(=O)NCCCOCCOCCOCCCNC(=O)CC[C@H](NC(=O)[C@H]1CC[C@H](CNC(=O)CCCCCCCCCCCCCCCCCCC(=O)O)CC1)C(=O)O)NC(=O)[C@H](CC(N)=O)NC(=O)[C@H](CC(C)(C)C)NC(=O)[C@H](CC1CCCCC1)NC(=O)[C@H](Cc1ccncc1)NC(=O)[C@H](CCCNC(=N)N)NC(=O)[C@H]1C[C@H](O)CN1C(=O)[C@H](CO)NC(=O)c1c[nH]cn1)C(=O)N[C@@H](CCCNC(=N)N)C(=O)N[C@@H](CCC(N)=O)C(=O)N[C@@H](CCCNC(=N)N)C(=O)N[C@@H](CC1CCCCC1)C(N)=O	58	–	-23.1	–
